Source: US5990146A, “Benzimidazoles for inhibiting protein tyrosine kinase mediated cellular proliferation” (Warner-Lambert Company, priority 1998, dated 1999)
pIC50: −log10 of the molar value. Where a name gives a salt, the structure may show the parent alone.

What was measured:
insulin receptor (INSr) = biological target: T1, insulin receptor (INSr) (Homo sapiens, UniProt P06213); test: Insulin receptor kinase assay; format: biochemical; conditions: Table 1; as for EGF receptor with 10 mM manganese chloride
T1 construct: An assay using the intracellular kinase domains of insulin receptor (INSr) is performed

SW-620 cells [1] = test: Human Colon Carcinoma Clonogenic Assay; format: cell-based
Experimental: SW620 cells are seeded at 7×10^5 per well; HCT8 cells are seeded at 5×10^5 per well; HT29 cells are seeded at 4×10^5 cells per well. Serially diluted drugs are prepared at 200 ×the final concentration and 15 μL are added to each of duplicate wells. Cells are incubated with drug for 2 days, rinsed once with 1 mL of trypsin+EDTA, and then trypsinized with the same trypsin solution. […] One milliliter of each of these cell suspensions is added to duplicate wells of 6 well plates previously prepared with 10% serum/growth medium/ 1% agarose plugs. The cells in these plates are incubated for approximately 2 weeks in the incubator and stained with 1 mL per well of 1 mg/mL iodonitrotetrazolium violet stain. The visible colonies are counted with an electronic optical colony counter and the clonogenicity of treated cells calculated in comparison to untreated control cells.

[2] = biological target: T2, PDGF receptor tyrosine kinase (mouse PDGF-β) (Mus musculus, UniProt P05622); test: PDGFr tyrosine kinase assay (poly glutamate-tyrosine phosphorylation); format: biochemical; conditions: Table 1; 10 minutes at 25° C.
T2 construct: PCR primers are designed to amplify a fragment of DNA that codes for the intracellular tyrosine kinase domain; made in house; host or cells: Sf9 insect cells (baculovirus), cell lysate
Experimental: Platelet Derived Growth Factor Receptor (PDGFr) and Fibroblast Growth Factor Receptor (FGFr)
Full length cDNAs for the mouse PDGF-β and human FGF-1 (flg) receptor tyrosine kinases were obtained from J. Escobedo and are prepared as described in J. Biol. Chem., 262: 1482-1487 (1991). PCR primers are designed to amplify a fragment of DNA that codes for the intracellular tyrosine kinase domain. The fragment is melded into a baculovirus vector, cotransfected with AcMNPV DNA, and the recombinant virus isolated. SF9 insect cells are infected with the virus to overexpress the protein, and the cell lysate is used for the assay.
The assay is performed in 96-well plates (100 μL/incubation/well), and conditions are optimized to measure the incorporation of ^32 p from [γ^32 P]-ATP into a glutamate-tyrosine copolymer substrate. Briefly, to each well is added 82.5 μL of incubation buffer containing 25 mM Hepes (pH 7.0), 150 mM NaCl, 0.1% Triton X-100, 0.2 mM PMSF, 0.2 mM sodium vanadate, 10 mM manganese chloride, and 750 μg/mL of poly (4:1) glutamate-tyrosine followed by 2.5 μL of inhibitor and 5 μL of enzyme lysate (7.5 μg/μL FGFR-TK or 6.0 μg/μL PDGFR-TK) to initiate the reaction. Following a 10 minute incubation at 25° C., 10 μL of [γ^32 P]-ATP (0.4 μCi plus 50 μM ATP) is added to each well and samples are incubated for an additional 10 minutes at 25° C. The reaction is terminated by the addition of 100 μL of 30% trichloroacetic acid (TCA) containing 20 mM sodium pyrophosphate and precipitation of material onto glass fiber filter mats (Wallac). Filters are washed 3 times with 15% TCA containing 100 mM sodium pyrophosphate and the radioactivity retained on the filters counted in a Wallac 1250 Betaplate reader. Nonspecific activity is defined as radioactivity retained on the filters following incubation of samples with buffer alone (no enzyme). Specific enzymatic activity is defined as total activity (enzyme plus buffer) minus nonspecific activity.

[3] = biological target: T3, Human EGF receptor tyrosine kinase (Homo sapiens, UniProt P00533); test: EGFr tyrosine kinase assay; format: biochemical; conditions: Table 1; 10 μM ATP, 25° C., 10 minutes
T3 construct: Human EGF receptor tyrosine kinase is isolated from A431 human epidermoid carcinoma cells; endogenous in cells; host or cells: A431 human epidermoid carcinoma cells (detergent lysate, fast Q sepharose fractions)

[4] = system: PDGF receptor autophosphorylation in rat aorta smooth muscle cells; test: PDGF Receptor Autophosphorylation Assay in rat aorta smooth muscle cells; format: cell-based; conditions: Table 2, PDGF-BB 30 ng/mL, 2 hours pre-incubation, read-out: IC50, inhibition of PDGF-stimulated receptor autophosphorylation
Experimental: Rat aorta smooth muscle cells (RASMC) are isolated from the thoracic aorta of rats and explanted according to the method of Ross, J. Cell. […] Cells are grown in Dulbecco's modified Eagle's medium (DMEM, Gibco) containing 10% fetal calf serum (FBS, Hyclone, Logan, Utah), 1% glutamine (Gibco) and 1% penicillin/streptomycin (Gibco). Cells are identified as smooth muscle cells by their "hill and valley" growth pattern and by fluorescent staining with a monoclonal antibody specific for SMC μ-actin (Sigma). RASMC are used between passages 5 and 20 for all experiments. Test compounds are prepared in dimethylsulfoxide (DMSO) in order to achieve consistency in the vehicle and to ensure compound solubility. Appropriate DMSO controls are simultaneously evaluated with the test compounds.
Rat aortic smooth muscle cells are grown to confluencey in 100 mm dishes. Growth medium is removed and replaced with serum-free medium and cells are incubated at 37° C. for an additional 24 hours. Test compounds are then added directly to the medium and cells incubated for an additional 2 hours. After 2 hours PDGF-BB is added at a final concentration of 30 ng/mL for 5 minutes at 37° C. to stimulate autophosphorylation of PDGF receptors. Following growth factor treatment, the medium is removed, and cells are washed with cold phosphate-buffered saline and immediately lysed with 1 mL of lysis buffer (50 mM Hepes, pH 7.5, 150 mM NaCl, 10% glycerol, 1% Triton-X 100, 1 mM EDTA, 1 mM EGTA, 50 mM NaF, 1 mM sodium orthovanadate, 30 mM p-nitrophenyl phosphate, 10 mM sodium pyrophosphate, 1 mM phenylmethyl sulfonyl fluoride, 10 μg/mL aprotinin and 10 μg/mL leupeptin). Lysates are centrifuged at 10,000 ×g for 10 minutes. […] Following the incubation, protein-A-sepharose beads are added for 2 hours with continuous mixing, and immune complexes bound to the beads washed 4 times with 1 mL lysis wash buffer. Immune complexes are solubilized in 40 μL of Laemmli sample buffer and electrophoresed in 8-16% SDS polyacrylamide gels. Following electrophoresis, separated proteins are transferred to nitrocellulose and immunoblotted with a 1:1000 dilution of antiphosphotyrosine monoclonal antibody (UBI clone 4G10; #05-321). Following extensive washing with PBS-0.2% tween-20, the blots are incubated with horseradish peroxidase labeled goat antimouse IgG (1:5000; Bio-Rad Inc, Hercules, Calif.) and protein levels are detected by enhanced chemiluminescence (ECL) detection system according to the instructions of the supplier (Amersham Inc, Arlington Heights, Ill.). The density of the protein bands are determined using NIH Image software (v. 1.56) and IC50 values are generated from the densitometric data.

SW-620 cells [5] = test: Human Colon Carcinoma Growth Delay Assay; format: cell-based; conditions: 72 h, Table 3, SW-620, 3 days
Experimental: Human Colon Carcinoma Growth Delay Assay Human colon carcinoma cells are seeded into 96-well tissue culture plates in a final volume of 180 μL of 10% fetal bovine serum containing growth media and allowed to incubate overnight (37° C., 5% CO2, 95% air). Cells of the SW620 cell line are seeded at 1.0-1.5×10^4 cells per well. Cells of the HCT8 and HT29 cell lines are seeded at 2-4×10^3 cells per well. […] At the end of the incubation period, cells are fixed with 100 μL per well of 10% trichloroacetic acid after removing the drug/culture medium. The plates are washed 5 times with tap water and stained with 100 μL per well of 0.075% sulforhodamine B in 1% acetic acid for 10 minutes. The plates are rinsed 4 times and allowed to air dry. The stain in the wells are solubilized by the addition of 10 mM unbuffered Tris base and the absorbance read using a microtiter plate optical reader. Inhibition of cell growth is calculated from absorbance data of the treated cells compared to untreated control cells. Table 3 provides data for inhibition of growth in human adenocarcinoma cell lines.

[6] = biological target: T4, FGF receptor tyrosine kinase (human FGF-1 (flg)) (Homo sapiens, UniProt P11362); test: FGFr tyrosine kinase assay (poly glutamate-tyrosine phosphorylation); format: biochemical; conditions: Table 1; 10 minutes at 25° C.
T4 construct: PCR primers are designed to amplify a fragment of DNA that codes for the intracellular tyrosine kinase domain; made in house; host or cells: Sf9 insect cells (baculovirus), cell lysate
Experimental: Platelet Derived Growth Factor Receptor (PDGFr) and Fibroblast Growth Factor Receptor (FGFr) Full length cDNAs for the mouse PDGF-β and human FGF-1 (flg) receptor tyrosine kinases were obtained from J. Escobedo and are prepared as described in J. Biol. Chem., 262: 1482-1487 (1991). PCR primers are designed to amplify a fragment of DNA that codes for the intracellular tyrosine kinase domain. The fragment is […] into a baculovirus vector, cotransfected with AcMNPV DNA, and the recombinant virus isolated. SF9 insect cells are infected with the virus to overexpress the protein, and the cell lysate is used for the […] and FGFr The assay is performed in 96-well plates (100 μL/incubation/well), and conditions are optimized to measure the incorporation of ^32 p from [γ^32 P]-ATP into a glutamate-tyrosine copolymer substrate. […] The reaction is terminated by the addition of 100 μL of 30% trichloroacetic acid (TCA) containing 20 mM sodium pyrophosphate and precipitation of material onto glass fiber filter mats (Wallac). Filters are washed 3 times with 15% TCA containing 100 mM sodium pyrophosphate and the radioactivity retained on the filters counted in a Wallac 1250 Betaplate reader. Nonspecific activity is defined as radioactivity retained on the filters following incubation of samples with buffer alone (no enzyme). Specific enzymatic activity is defined as total activity (enzyme plus buffer) minus nonspecific activity.

Protein kinase C (PKC) = test: PKC assay; format: biochemical; conditions: Table 1; rat brain preparation
Experimental: Protein kinase C (PKC) is obtained as a rat brain preparation from Promega.
The PKC assay is performed as previously described by Martiny-Baron, et al., J. Biol. Chem. 268: 9194-9197 (1993).

[7] = biological target: MAP Kinase Pathway (GST-MEK / GST-MAPK); test: Cascade Assay for Inhibitors of the MAP Kinase Pathway (APK Assay); format: biochemical; conditions: Table 1; 50 μM ATP, 20 minutes
Experimental: Cascade Assay for Inhibitors of the MAP Kinase Pathway (APK Assay) Incorporation of ^32 P into myelin basic protein (MBP) is assayed in the presence of a glutathione S-transferase fusion protein containing p44MAP kinase (GST-MAPK) and a glutathione S-transferase fusion protein containing p45MEK (GST-MEK). […] Reactions are stopped after 20 minutes by addition of trichloroacetic acid and filtered through a GF/C filter mat. ^32 P retained on the filter mat is determined using a 1205 betaplate. […] To ascertain whether compounds are inhibiting GST-MEK or GST MAPK, two additional protocols are employed. In the first protocol, compounds are added to tubes containing GST MEK, followed by addition of GST-MAPK, MBP and [γ^32 P]ATP. In the second protocol, compounds are added to tubes containing both GST-MEK and GST-MAPK, followed by MBP and [γ^32 P]ATP. Compounds that show activity in both protocols are scored as […], while compounds showing activity in only the first protocol are scored as MEK inhibitors.

c-Src = biological target: T5, c-Src (Homo sapiens, UniProt P12931); test: c-Src kinase assay; format: biochemical; conditions: Table 1; 5 μM ATP, room temperature, 10 minutes
T5 construct: made in house; host or cells: baculovirus infected insect cells
Experimental: c-Src kinase is purified from baculovirus infected insect cell lysates using an antipeptide monoclonal antibody directed against the N-terminal 2-17 amino acids as described previously by Fry, et al, Anticancer Drug Design. 9: 331-351 (1994). […] At the end of the lysate incubation, the beads are rinsed 3 times in lysis buffer, resuspended in lysis buffer containing 10% glycerol, and frozen. These latex beads are thawed, rinsed 3 times in assay buffer which is comprised of 40 mM tris pH 7.5, 5 mM magnesium chloride, and suspended in the same buffer. […] The reaction is started at room temperature by addition of the ATP and quenched 10 minutes later by the addition of 125 μL of 30% TCA, 0.1 M sodium pyrophosphate for 15 minutes on ice. The plate is then filtered and the wells washed with two 250-μL aliquots of 15% TCA, 0.1 M pyrophosphate. The filters are punched, counted in a liquid scintillation counter, and the data examined for inhibitory activity in comparison to a known inhibitor such as erbstatin. The method is described more fully in J. Med. Chem., 37: 598-609 (1994).

[8] = Table 3, SW-620, 2 days drug exposure, approximately 2 weeks colony growth, read-out: SW-620 Clonogenic IC50

T2 sequence (P05622 599-961 limits assumed): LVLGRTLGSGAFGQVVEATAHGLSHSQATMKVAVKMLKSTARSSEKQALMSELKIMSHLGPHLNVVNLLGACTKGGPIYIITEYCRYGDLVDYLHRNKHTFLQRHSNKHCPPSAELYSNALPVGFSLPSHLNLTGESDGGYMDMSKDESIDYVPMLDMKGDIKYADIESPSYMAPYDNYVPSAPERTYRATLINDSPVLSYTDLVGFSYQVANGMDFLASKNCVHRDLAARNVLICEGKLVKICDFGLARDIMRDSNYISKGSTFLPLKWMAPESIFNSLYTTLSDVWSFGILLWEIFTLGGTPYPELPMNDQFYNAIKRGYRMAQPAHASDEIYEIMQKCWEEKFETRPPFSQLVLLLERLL
T5 sequence (P12931 whole entry, species assumed): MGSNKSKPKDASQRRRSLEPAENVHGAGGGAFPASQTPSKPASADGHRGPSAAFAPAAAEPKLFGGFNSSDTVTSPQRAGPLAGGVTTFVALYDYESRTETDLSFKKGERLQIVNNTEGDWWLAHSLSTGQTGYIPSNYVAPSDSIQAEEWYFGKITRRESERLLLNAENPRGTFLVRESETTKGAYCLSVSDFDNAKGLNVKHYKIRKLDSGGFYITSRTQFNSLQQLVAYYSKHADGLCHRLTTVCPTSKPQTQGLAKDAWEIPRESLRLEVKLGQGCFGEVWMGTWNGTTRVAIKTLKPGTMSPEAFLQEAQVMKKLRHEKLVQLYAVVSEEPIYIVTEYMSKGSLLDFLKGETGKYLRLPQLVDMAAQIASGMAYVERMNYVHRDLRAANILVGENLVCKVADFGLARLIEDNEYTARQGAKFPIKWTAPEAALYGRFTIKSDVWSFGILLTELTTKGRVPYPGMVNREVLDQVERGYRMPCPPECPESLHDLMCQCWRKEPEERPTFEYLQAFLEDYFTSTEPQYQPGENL
T3 sequence (P00533 25-1210): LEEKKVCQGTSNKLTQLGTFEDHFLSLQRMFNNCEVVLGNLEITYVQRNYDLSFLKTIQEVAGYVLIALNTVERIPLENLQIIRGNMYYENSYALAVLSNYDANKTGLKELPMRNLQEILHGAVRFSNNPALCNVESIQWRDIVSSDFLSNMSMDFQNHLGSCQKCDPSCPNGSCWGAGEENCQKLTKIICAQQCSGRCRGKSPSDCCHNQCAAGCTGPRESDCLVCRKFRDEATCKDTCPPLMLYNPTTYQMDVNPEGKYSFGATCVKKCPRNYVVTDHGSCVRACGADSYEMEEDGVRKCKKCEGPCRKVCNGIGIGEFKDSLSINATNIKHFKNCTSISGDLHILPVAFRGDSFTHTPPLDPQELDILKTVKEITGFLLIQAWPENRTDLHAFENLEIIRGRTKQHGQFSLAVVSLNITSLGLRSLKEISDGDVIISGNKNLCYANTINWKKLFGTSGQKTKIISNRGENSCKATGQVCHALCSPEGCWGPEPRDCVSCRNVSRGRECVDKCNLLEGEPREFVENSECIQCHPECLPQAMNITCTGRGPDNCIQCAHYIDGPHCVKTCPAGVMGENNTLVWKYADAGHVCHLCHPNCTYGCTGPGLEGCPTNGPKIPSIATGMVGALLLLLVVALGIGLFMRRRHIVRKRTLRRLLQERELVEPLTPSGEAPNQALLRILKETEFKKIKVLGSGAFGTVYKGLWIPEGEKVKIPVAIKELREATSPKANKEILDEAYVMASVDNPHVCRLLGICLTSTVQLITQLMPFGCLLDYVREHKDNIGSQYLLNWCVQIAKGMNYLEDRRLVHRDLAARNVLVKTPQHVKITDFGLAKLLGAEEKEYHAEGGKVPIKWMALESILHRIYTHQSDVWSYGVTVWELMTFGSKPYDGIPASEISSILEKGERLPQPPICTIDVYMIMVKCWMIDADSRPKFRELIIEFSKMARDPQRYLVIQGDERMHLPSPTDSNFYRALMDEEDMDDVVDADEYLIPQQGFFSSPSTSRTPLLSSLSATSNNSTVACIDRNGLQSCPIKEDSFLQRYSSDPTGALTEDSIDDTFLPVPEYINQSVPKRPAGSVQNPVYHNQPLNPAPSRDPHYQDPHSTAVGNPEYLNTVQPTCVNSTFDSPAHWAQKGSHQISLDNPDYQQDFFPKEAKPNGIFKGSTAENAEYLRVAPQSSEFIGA
T1 sequence (P06213 1023-1298 limits assumed, species assumed): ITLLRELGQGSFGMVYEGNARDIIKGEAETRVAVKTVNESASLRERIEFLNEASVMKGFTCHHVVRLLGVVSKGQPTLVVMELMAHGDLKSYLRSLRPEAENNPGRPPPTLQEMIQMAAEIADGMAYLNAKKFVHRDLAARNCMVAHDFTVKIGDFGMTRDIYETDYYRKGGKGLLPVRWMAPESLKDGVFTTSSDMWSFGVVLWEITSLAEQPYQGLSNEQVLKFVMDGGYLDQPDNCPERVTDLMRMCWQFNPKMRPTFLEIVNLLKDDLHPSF
T4 sequence (P11362 478-767 limits assumed): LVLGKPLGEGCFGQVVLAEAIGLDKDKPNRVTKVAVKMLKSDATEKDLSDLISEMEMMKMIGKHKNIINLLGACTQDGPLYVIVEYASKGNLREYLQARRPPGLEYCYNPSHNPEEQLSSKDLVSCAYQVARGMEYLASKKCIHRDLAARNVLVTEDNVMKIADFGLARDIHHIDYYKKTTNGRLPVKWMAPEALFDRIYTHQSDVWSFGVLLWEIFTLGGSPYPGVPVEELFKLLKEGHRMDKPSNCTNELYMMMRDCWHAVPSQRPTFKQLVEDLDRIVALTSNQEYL

Row | SMILES | pIC50 (insulin receptor (INSr)) | pIC50 (SW-620 cells [1]; SW-620, read-out: SW-620 Clonogenic IC50) | pIC50 (SW-620 cells [1]; [8]) | pIC50 [2] | pIC50 [3] | pIC50 [4] | pIC50 (SW-620 cells [5]) | pIC50 [6] | pIC50 (Protein kinase C (PKC)) | pIC50 [7] | pIC50 (c-Src)
1 | Oc1cccc2c1ncn2-c1ccccc1 [Example 11, 4-Hydroxy-1-phenylbenzimidazole Hydrochloride] | < 4.30 | < 5.30 | 5.68 | 4.97 | < 4.30 | < 5.00 | < 4.60 | – | – | – | –
2 | COc1ccc2c(c1)ncn2-c1ccccc1 [Example 13, 5-Methoxy-1-phenylbenzimidazole Hydrochloride] | < 4.30 | – | < 5.30 | 6.40 | > 4.30 | 5.70 | < 4.60 | 4.66 | < 4.30 | 5.30 | –
3 | CN(C)CCCOc1ccc2c(c1)ncn2-c1ccccc1 [Example 37, 5-[3--(N,N-Dimethylamino)propoxyl]-1-phenylbenzimidazole Dihydrochloride] | < 4.30 | – | – | 6.70 | < 4.40 | – | – | 5.39 | < 4.30 | 4.57 | 4.85
4 | c1ccc(-n2cnc3cc(OCCN4CCOCC4)ccc32)cc1 [Example 38, 5-[2-(4-Morpholino)ethoxy]-1-phenylbenzimidazole Dihydrochloride] | < 4.30 | – | – | 6.15 | < 4.40 | 6.15 | – | 4.55 | < 4.30 | 4.35 | < 4.30
5 | c1ccc(-n2cnc3cc(OCCCN4CCOCC4)ccc32)cc1 [Example 39, 5-[3-(4-Morpholino)propoxy]-1-phenylbenzimidazole Dihydrochloride] | < 4.30 | – | – | 6.70 | < 4.40 | – | – | 5.01 | < 4.30 | 4.74 | < 4.30
6 | COc1ccc2c(c1)ncn2-c1ccc(N)cc1 [Example 45, 1-(4-Aminophenyl)-5-methoxybenzimidazole Dihydrochloride] | < 4.30 | – | – | 6.52 | > 4.40 | 5.46 | – | 4.74 | < 4.30 | 4.43 | < 4.30
7 | c1ccc(-n2cnc3cc(OCCCCN4CCOCC4)ccc32)cc1 [Example 59, 5-[4-(4-Morpholino)butoxy]-1]phenylbenzimidazole Dihydrochloride] | – | – | < 4.60 | 6.52 | – | 5.66 | < 4.60 | 4.92 | – | – | 4.60
